Experimental data published in patent US20100267561A1, “HERBICIDAL PYRIDAZINONE DERIVATIVES” (priority 2007, published 2010).

Columns and labels:
Assay in all cases: Test A pre-/postemergence plant response
Type in all cases: in vivo
[1] = system: barnyardgrass (Echinochloa crus-galli)
From the text: (§1) Seeds of species selected from barnyardgrass (Echinochloa crus-galli), large crabgrass (Digitaria sanguinalis), giant foxtail (Setaria faberi), blackgrass (Alopecurus myosuroides), canarygrass (Phalaris minor), morningglory (Ipomoea coccinea), pigweed (Amaranthus retroflexus), velvetleaf (Abutilon theophrasti), wheat (Triticum aestivum), and corn (Zea mays) were planted into a blend of loam soil and sand and treated preemergence with a directed soil spray using test chemicals formulated in a non-phytotoxic solvent mixture which included a surfactant. At the same time these species were also treated with postemergence applications of test chemicals formulated in the same manner.
(§2) Plants ranged in height from 2 to 10 cm and were in the one- to two-leaf stage for the postemergence treatment. Treated plants and untreated controls were maintained in a greenhouse for approximately 10 days, after which time all treated plants were compared to untreated controls and visually evaluated for injury. Plant response ratings, summarized in Table A, are based on a 0 to 100 scale where 0 is no effect and 100 is complete control. A dash (-) response means no test results.

corn (Zea mays) = system: corn (Zea mays)
From the text: as §1, §2

[2] = system: giant foxtail (Setaria faberi)
From the text: as §1, §2

[3] = system: large crabgrass (Digitaria sanguinalis)
From the text: as §1, §2

[4] = system: morningglory (Ipomoea coccinea)
From the text: as §1, §2

[5] = system: pigweed (Amaranthus retroflexus)
From the text: as §1, §2

[6] = system: velvetleaf (Abutilon theophrasti)
From the text: as §1, §2

[7] = system: wheat (Triticum aestivum)
From the text: as §1, §2

[8] = Postemergence, 31 g ai/ha, 0 to 100 scale (0 no effect, 100 complete control)
[9] = Postemergence, 125 g ai/ha, 0 to 100 scale, 0 no effect, 100 complete control
[10] = Preemergence, 31 g ai/ha, 0 to 100 scale, 0 is no effect, 100 is complete control
[11] = Preemergence, 125 g ai/ha, 0 to 100 scale (0 no effect, 100 complete control)
[12] = Postemergence, 500 g ai/ha, 0 to 100 scale, 0 no effect, 100 complete control
[13] = Preemergence, 500 g ai/ha, 0 to 100 scale (0 no effect, 100 complete control)

| Compound | Plant response rating, Barnyardgrass [1, 9] | Plant response rating, Barnyardgrass [1, 11] | Plant response rating, Corn (corn (Zea mays); [9]) | Plant response rating, Corn (corn (Zea mays); [11]) | Plant response rating, Foxtail, Giant [2, 9] | Plant response rating, Foxtail, Giant [2, 11] | Plant response rating, Crabgrass, Large [3, 9] | Plant response rating, Crabgrass, Large [3, 11] | Plant response rating, Morningglory [4, 9] | Plant response rating, Morningglory [4, 11] | Plant response rating, Pigweed [5, 9] | Plant response rating, Pigweed [5, 11] | Plant response rating, Velvetleaf [6, 9] | Plant response rating, Velvetleaf [6, 11] | Plant response rating, Wheat [7, 9] | Plant response rating, Wheat [7, 11] | further results |
| --- | --- | --- | --- | --- | --- | --- | --- | --- | --- | --- | --- | --- | --- | --- | --- | --- | --- |
| Cn1ncc(O)c(-c2nn(-c3ccc(C(F)(F)F)cn3)cc2Br)c1=O [Compound 71] | 90 | 40 | 40 | 20 | 90 | 100 | 80 | 60 | 0 | 0 | 0 | 0 | 0 | 0 | 80 | 50 | Plant response rating, Barnyardgrass [1, 8]: 10; Plant response rating, Barnyardgrass [1, 10]: 0; Plant response rating, Corn (corn (Zea mays); [8]): 0; Plant response rating, Corn (corn (Zea mays); [10]): 0; Plant response rating, Foxtail, Giant [2, 8]: 30; Plant response rating, Foxtail, Giant [2, 10]: 0; Plant response rating, Crabgrass, Large [3, 8]: 20; Plant response rating, Crabgrass, Large [3, 10]: 10; Plant response rating, Morningglory [4, 8]: 0; Plant response rating, Morningglory [4, 10]: 0; Plant response rating, Pigweed [5, 8]: 0; Plant response rating, Pigweed [5, 10]: 0; Plant response rating, Velvetleaf [6, 8]: 0; Plant response rating, Velvetleaf [6, 10]: 0; Plant response rating, Wheat [7, 8]: 0; Plant response rating, Wheat [7, 10]: 0 |
| Cc1nc(-c2ccc(C(F)(F)F)cc2)sc1-c1c(O)cnn(C)c1=O [Compound 24] | 0 | 0 | 0 | 0 | 0 | 0 | 0 | 0 | 0 | 0 | 0 | 0 | 0 | 0 | 0 | 0 | Plant response rating, Barnyardgrass [1, 12]: 10; Plant response rating, Barnyardgrass [1, 13]: 30; Plant response rating, Corn (corn (Zea mays); [12]): 20; Plant response rating, Corn (corn (Zea mays); [13]): 0; Plant response rating, Foxtail, Giant [2, 12]: 40; Plant response rating, Foxtail, Giant [2, 13]: 80; Plant response rating, Crabgrass, Large [3, 12]: 10; Plant response rating, Crabgrass, Large [3, 13]: 60; Plant response rating, Morningglory [4, 12]: 0; Plant response rating, Morningglory [4, 13]: 0; Plant response rating, Pigweed [5, 12]: 0; Plant response rating, Pigweed [5, 13]: 0; Plant response rating, Velvetleaf [6, 12]: 0; Plant response rating, Velvetleaf [6, 13]: 0; Plant response rating, Wheat [7, 12]: 20; Plant response rating, Wheat [7, 13]: 0 |
